The subject of experiment [1] is K562 ALDH (+) fraction (cancer stem cells). Put plainly: Cancer stem-cell selective inhibitory action against chronic myelocytic leukemia cells, ALDH (+) fraction, CellTiter-Glo. The note with it: Homo sapiens, 24 hours; for activity at 0.12 µg/mL: 0.12 μg/ml; for activity at 0.24 µg/mL: 0.24 μg/ml; for activity at 0.35 µg/mL: 0.35 μg/ml; for activity at 0.47 µg/mL: 0.47 μg/ml; for activity at 0.59 µg/mL: 0.59 μg/ml. It counts as cell-based. Here is the method: (§1) Human chronic myelocytic leukemia cells, K562, were pre-cultured in RPMI1640 medium containing 10% FBS at 37° C. in a 5% CO2 ambient. Then, a fraction containing 80% or more of cancer stem cells was extracted by use of ALDEFLUOR reagent (manufactured by VERITAS Corporation) and FACSAria flow cytometry (manufactured by Nippon Becton, Dickinson and Company). Subsequently, Compound (5) was added to the medium so as to obtain a final concentration of 10 μg/mL and cultured at 37° C. for 24 hours in a 5% CO2 ambient. The cultured cells were analyzed for viable cell count according to CellTiter-Glo Luminescent Cell Viability Assay (manufactured by Promega KK.). As a reference, the number of cells cultured in a medium containing a 0.1% dimethylsulfoxide solution (hereinafter, simply referred to as DMSO) in place of a medium containing Compound (1), in the aforementioned operation, was used as 0.1. Note that hereinafter, an ALDEFLUOR reagent positive fraction (deemed as cancer stem cells) is represented by ALDH (+), whereas an ALDEFLUOR reagent negative fraction (not deemed as cancer stem cells) is represented by ALDH (−), in some cases.
(§2) The same operation as in Experimental Example 12 was repeated except that Compound (5) in Experimental Example 12 was changed to the compounds shown in Table 4 and final concentrations shown in Table 4 were used and viable cell counts were separately analyzed. Note that the growth rate in Examples herein is a numerical value of the number of cells obtained after culture relative to the number of cells (regarded as 0.1) grown in a medium containing 0.1% DMSO.
(§3) The same operation as in Experimental Example 12 was repeated except that Compound (5) in Experimental Example 12 was changed to Imatinib (manufactured by NOVARTIS), which is a general anticancer drug, and comparative compounds shown in Table 4 and final concentrations shown in Table 4 were used and viable cell counts were separately analyzed.
(§4) The growth suppressive effect of cancer stem cells was evaluated based on the following criteria. Note that the growth rate in Examples herein is a numerical value relative to the number of cells (regarded as 0.1) grown in a medium containing 0.1% DMSO. • A: The value of ALDH (+) is less than 0.5 (growth suppressive effect against cancer stem cells is extremely high) • B: The value of ALDH (+) is 0.5 or more and less than 0.95 (growth suppressive effect against cancer stem cells is high) • C: The value of ALDH (+) is 0.95 or more (no growth suppressive effect against cancer stem cells)
(§5) Furthermore, superiority of cancer stem cells was evaluated by comparing cancer stem cells to cancer cells based on the following criteria. ALDH (+) represents cancer stem cells; whereas ALDH (−) represents general cancer cells. • A: The value of ALDH (+)/ALDH (−) is less than 0.8 (selective inhibitory effect against cancer stem cells is extremely high) • B: The value of ALDH (+)/ALDH (−) is 0.8 or more and less than 0.95 (selective inhibitory effect against cancer stem cells is high) • C: The value of ALDH (+)/ALDH (−) is 0.95 or more (no selective inhibitory effect against cancer stem cells)

In experiment [2] the test system is K562 ALDH (−) fraction (general cancer cells). Put plainly: Cancer stem-cell selective inhibitory action against chronic myelocytic leukemia cells, ALDH (−) fraction, CellTiter-Glo. It counts as cell-based, Human. Here is the method: as §1, §2, §3, §4, §5
In general terms: In ATP-based viability assays light output follows the ATP content of the culture.

The test system of experiment [3] is K562-BFP human chronic myelocytic leukemia cells transplanted to zebra young fish. In words: Cancer metastasis suppressive effect in metastatic foci of cancer cells transplanted to zebra young fish. In kind it is in vivo. Particulars: metastatic foci (region within 300 to 450 μm from a transplanted tumor). The text has this:
From cell strain K562-BFP, which is a strain of human chronic myelocytic leukemia cells having fluorescent protein TagBFP constantly expressed, a fraction (ALDH (+)) containing 80% or more of cancer stem cells was extracted by use of a cancer stem cell marker, ALDEFLUOR reagent (manufactured by VERITAS Corporation) and FACSAria flow cytometry (manufactured by Nippon Becton, Dickinson and Company). The ALDH (+) fraction and a ALDH (−) fraction of general cancer cells were transplanted separately to zebra young fish (MieKomachi lineage, 2 days after fertilization) and the fish were raised in a 32° C. environment. Furthermore, 24 hours after transplantation, Compound (16) was added to breeding water so as to obtain a final concentration of […] and fish were raised for two days in a 32° C. environment. Cells transplanted to the zebra young fish were observed under MZ16F fluorescent stereoscopic microscope (manufactured by Leica Microsystems) and a fluorescent image of the cells after 24 hours was photographed and then fluorescent intensity was quantified.
As a reference, the fluorescent intensity of cells, which were cultured in the same operation method as above in a medium containing a 0.1% DMSO solution in place of Compound (16), was used.
Fluorescent images were photographed in the same manner as in Experimental Example 29 except that Imatinib and Dasatinib were respectively used in place of the compound (16) in Experimental Example 29.
The inhibition rate herein was obtained according to the expression: 100×(1-F1/F0), where the fluorescent intensity of cells when a test substance was added is represented by F1, and the fluorescent intensity of cells when a reference substance (DMSO) was added is represented by F0.
The growth suppressive effect in metastatic foci (region within 300 to 450 μm from a transplanted tumor) of cancer stem cells was evaluated based on the following criteria. • A: Inhibition rate is 70 or more (growth suppressive effect against metastatic foci (region within 300 to 450 μm from a transplanted tumor) of cancer stem cells is extremely high) • B: Inhibition rate is 50 or more and less than 70 (growth suppressive effect against metastatic foci (region within 300 to 450 μm from a transplanted tumor) of cancer stem cells is high) • C: Inhibition rate is less than 50 (growth suppressive effect against metastatic foci (region within 300 to 450 μm from a transplanted tumor) of cancer stem cells is low)

Setting [4] is: read-out: Growth suppression evaluated.
The mark [5] stands for this setting: relative to 0.1% DMSO, read-out: ALDH(+) (growth rate).

The structures appear in SMILES notation. Where two headings read alike, the source gives them in different places.

The text below walks through data of US10220024B2, “Method of inhibiting cancer cell, method for detecting cancer cell, and system for detecting cancer cell” (CANON KABUSHIKI KAISHA, priority 2012, dated 2019).

Take `Cc1ccc(NC(=O)c2ccc(CN3CCN(C)CC3)cc2)cc1Nc1nccc(-c2cccnc2)n1` [Imatinib, reference compound]: the activity at 0.12 µg/mL in experiment [1] (setting [4]) is 50 to 95%; in experiment [1] (setting [5]), 74%; in experiment [2] (Homo sapiens, 0.12 μg/ml, 24 hours, relative to 0.1% DMSO, read-out: ALDH(−) (growth rate)), 51%. The activity at 0.24 µg/mL in experiment [1] (setting [4]) was 50 to 95%; in experiment [1] (setting [5]), 59%; in experiment [2] (Homo sapiens, 0.24 μg/ml, 24 hours, relative to 0.1% DMSO, read-out: ALDH(−) (growth rate)) it was 40%. For the same molecule, the activity at 0.35 µg/mL in experiment [1] (setting [4]) was less than 50%; in experiment [1] (setting [5]), 48%; in experiment [2] (Homo sapiens, 0.35 μg/ml, 24 hours, relative to 0.1% DMSO, read-out: ALDH(−) (growth rate)) it was 32%. The activity at 0.47 µg/mL was less than 50% in experiment [1] (setting [4]); 36% in experiment [1] (setting [5]); 22% in experiment [2] (Homo sapiens, 0.47 μg/ml, 24 hours, relative to 0.1% DMSO, read-out: ALDH(−) (growth rate)). The activity at 0.59 µg/mL is less than 50% in experiment [1] (setting [4]); 31% in experiment [1] (setting [5]); 11% in experiment [2] (Homo sapiens, 0.59 μg/ml, 24 hours, relative to 0.1% DMSO, read-out: ALDH(−) (growth rate)). Moreover, the “inhibitory effect against general cancer cells, in words” value in experiment [2] is “an inhibitory effect against general cancer cells was observed”. The “Evaluation (inhibition rate in metastatic foci)” value in experiment [3] (0.5 μm in breeding water) is “B (Inhibition rate is 50 or more and less than 70)”. The same molecule returned an Inhibition rate in experiment [3] (final concentration of 0.5 μm in breeding water, 100×(1-F1/F0) versus DMSO) of 60.
